{"source": "patent US10751318B2", "about": "“Pharmaceutical co-crystal and use thereof” (SYN-NAT PRODUCTS ENTERPRISE LLC, priority 2015, dated 2020)", "key": {"[1]": {"test_system": "human embryonic kidney cell line HEK293", "test": "MTS cell viability assay, HEK293 (prostate cancer study; controls docetaxel, cisplatin)", "conditions": "for toxicity to HEK293 cells: study with docetaxel and cisplatin (FIG. 4)"}, "[2]": {"test_system": "fetal hepatocytes HL-7002", "test": "MTS cell viability assay, HL-7002 (prostate cancer study; controls docetaxel, cisplatin)", "conditions": "for IC50: read-out: IC50 to reduce HL-7002 cell number"}, "[3]": {"test_system": "ACHN kidney cancer cell line", "test": "MTS cell viability assay, ACHN kidney cancer cells", "format": "cell-based", "conditions": "read-out: IC50 to reduce ACHN cell number"}, "[4]": {"test_system": "human embryonic kidney cell line HEK293", "test": "MTS cell viability assay, HEK293 (kidney cancer study; controls carboplatin, 5-FU)"}, "[5]": {"test_system": "fetal hepatocytes HL-7002", "test": "MTS cell viability assay, HL-7002 (kidney cancer study; controls carboplatin, 5-FU)", "conditions": "for IC50: read-out: IC50 in HL-7002 cells"}, "[6]": {"test_system": "A498 kidney cancer cell line", "test": "MTS cell viability assay, A498 kidney cancer cells", "format": "cell-based"}, "[7]": {"test_system": "PC-3 prostate cancer cell line", "test": "MTS cell viability assay, PC-3 prostate cancer cells", "format": "cell-based, human", "conditions": "PC-3 cells, 0.01 to 300 μM, read-out: IC50 to reduce PC-3 cell number"}, "[8]": {"test": "Water solubility"}, "[9]": {"test_system": "HBsAg secreted by HepG2.2.15 cells", "test": "HBsAg secreted by HepG2.2.15 cells (ELISA)", "format": "cell-based, hepatitis B virus", "conditions": "3d", "excerpt": "(§1) The levels of HbsAg and HbeAg in chemical-treated HepG2.2.15 cells were detected by enzyme-linked immunosorbent assay (ELISA)."}, "[10]": {"test_system": "HBeAg secreted by HepG2.2.15 cells", "test": "HBeAg secreted by HepG2.2.15 cells (ELISA)", "format": "cell-based, hepatitis B virus", "conditions": "3d", "excerpt": "as §1"}, "[11]": {"test_system": "LNCaP prostate cancer cell line", "test": "MTS cell viability assay, LNCaP prostate cancer cells", "format": "cell-based, human", "conditions": "0.01 to 300 μM, read-out: IC50 to reduce LNCaP cell number"}, "[12]": {"conditions": "ACHN cells, MTS, 0.01 to 300 uM"}, "[13]": {"conditions": "HEK293 cells, similar conditions"}, "[14]": {"conditions": "read-out: IC50 in HEK293 cells, HEK293 cells, study with carboplatin and 5-FU (FIG. 8)"}, "[15]": {"conditions": "HL-7002 cells, similar conditions"}, "[16]": {"conditions": "HL-7002 cells, study with carboplatin and 5-FU (FIG. 7)"}, "[17]": {"conditions": "HL-7002 cells, study with docetaxel and cisplatin (FIG. 3)"}, "[18]": {"conditions": "A498 cells, MTS, 0.01 to 300 uM, read-out: IC50 to reduce A498 cell number"}}, "note": "“And” between values parts separate entries of the source, which are not always exact repeats. Identical values can stand only once. Like-named read-outs stand apart in the source and are kept apart here."}
{"compound": "CC(=O)O[C@@]12CO[C@@H]1C[C@H](O)[C@@]1(C)C(=O)[C@H](O)C3=C(C)[C@@H](OC(=O)[C@H](O)[C@@H](NC(=O)OC(C)(C)C)c4ccccc4)C[C@@](O)([C@@H](OC(=O)c4ccccc4)[C@H]21)C3(C)C", "note": "[docetaxel, reference compound]", "values": [{"measurement": "toxicity to HEK293 cells", "setting": "[1]", "value": "strong toxicity"}, {"measurement": "IC50", "setting": "[2]; Homo sapiens, Hepatocyte", "value": 0.095, "unit": "µM"}]}
{"compound": "O=c1[nH]cc(F)c(=O)[nH]1", "note": "[5-FU, fluorouracil, reference compound]", "values": [{"measurement": "IC50", "setting": "[3]; Homo sapiens, ACHN", "value": 6.45, "unit": "µM"}, {"measurement": "IC50", "setting": "[4]; Homo sapiens, HEK293, read-out: IC50 in HEK293 cells", "value": 356, "unit": "µM"}, {"measurement": "IC50", "setting": "[5]; Homo sapiens, Hepatocyte", "value": 45, "unit": "µM"}, {"measurement": "IC50", "setting": "[6]; Homo sapiens, A498, read-out: IC50 to reduce A498 cell number", "value": 18.2, "unit": "µM"}]}
{"compound": "carboplatin cis-cyclobutane-1,2-dicarboxylic acid co-crystal [CBCBP]", "values": [{"measurement": "toxicity to HEK293 cells", "setting": "[1]", "value": "no toxicity"}, {"measurement": "IC50", "setting": "[3]; [12]", "value": "11.6 µM and ~11.6 µM"}, {"measurement": "toxicity of CBCBP relative to 5-FU", "setting": "[4]; [13]", "value": "about ¼"}, {"measurement": "toxicity of CBCBP relative to carboplatin", "setting": "[4]; [13]", "value": "about ⅕"}, {"measurement": "IC50", "setting": "[4]; [14]", "value": "1200 µM and ~1200 µM"}, {"measurement": "toxicity of CBCBP relative to 5-FU", "setting": "[5]; [15]", "value": "about ⅛"}, {"measurement": "toxicity of CBCBP relative to carboplatin", "setting": "[5]; [15]", "value": "about 1/10"}, {"measurement": "IC50", "setting": "[5]; [16]", "value": "351 µM and ~351 µM"}, {"measurement": "IC50", "setting": "[7]", "value": "~17.6 µM and 17.6 µM"}, {"measurement": "water solubility", "setting": "[8]", "value": "~30", "unit": "mg/mL"}, {"measurement": "inhibition rate HbsAg", "setting": "[9]; 3.125 μg/mL", "value": 19.5, "unit": "%"}, {"measurement": "inhibition rate HbsAg", "setting": "[9]; 6.25 μg/mL", "value": 23.6, "unit": "%"}, {"measurement": "inhibition rate HbsAg", "setting": "[9]; 12.5 μg/mL", "value": 37.3, "unit": "%"}, {"measurement": "inhibition rate HbsAg", "setting": "[9]; 25 μg/mL", "value": 48.5, "unit": "%"}, {"measurement": "inhibition rate HbeAg", "setting": "[10]; 3.125 μg/mL", "value": 0.6, "unit": "%"}, {"measurement": "inhibition rate HbeAg", "setting": "[10]; 6.25 μg/mL", "value": 25.0, "unit": "%"}, {"measurement": "inhibition rate HbeAg", "setting": "[10]; 12.5 μg/mL", "value": 25.3, "unit": "%"}, {"measurement": "inhibition rate HbeAg", "setting": "[10]; 25 μg/mL", "value": 28.5, "unit": "%"}, {"measurement": "IC50", "setting": "[11]", "value": "~19.6", "unit": "µM"}, {"measurement": "toxicity of CBCBP relative to cisplatin", "setting": "[2]; [15]", "value": "about 1/10"}, {"measurement": "toxicity of CBCBP relative to docetaxel", "setting": "[2]; [15]", "value": "about 1/216"}, {"measurement": "IC50", "setting": "[2]; [17]", "value": "~20.5 µM and 20.5 µM"}, {"measurement": "IC50", "setting": "[6]; [18]", "value": "~18.4 µM and 18.4 µM"}]}
{"compound": "N.N.O=C([O-])C1(C(=O)[O-])CCC1.[Pt+2]", "note": "[carboplatin, reference compound]", "values": [{"measurement": "IC50", "setting": "[3]; [12]", "value": 11, "unit": "µM"}, {"measurement": "IC50", "setting": "[4]; [14]", "value": 237, "unit": "µM"}, {"measurement": "IC50", "setting": "[5]; [16]", "value": 34, "unit": "µM"}, {"measurement": "water solubility", "setting": "[8]", "value": 18, "unit": "mg/mL"}, {"measurement": "IC50", "setting": "[6]; [18]", "value": 14.7, "unit": "µM"}]}
{"compound": "N.N.[Cl][Pt][Cl]", "note": "[cisplatin, reference compound]", "values": [{"measurement": "IC50", "setting": "[1]; read-out: IC50 in HEK293 cells, study with docetaxel and cisplatin (FIG. 4)", "value": 6.9, "unit": "µM"}, {"measurement": "IC50", "setting": "[7]", "value": 2.49, "unit": "µM"}, {"measurement": "IC50", "setting": "[11]", "value": 2.25, "unit": "µM"}, {"measurement": "IC50", "setting": "[2]; [17]", "value": 2.01, "unit": "µM"}]}
